Measurements reported in patent US5491220A, “Surface loop structural analogues of fibroblast growth factors” (Yeda Research and Development Co., Ltd., priority 1994, dated 1996).

System: neovascularization
Experiment: In vivo angiogenesis, rabbit ear chamber model
Method: In an in vivo model of angiogenesis, FGF-2LI is evaluated using the rabbit ear chamber system modified and improved by Howden, G. F., and Silver, I. A., (Int. Endodontic J. 13: 3-16 (1980)), observing the growth factor-induced neovascularization, or its inhibition, by modified growth factors or other reagents.
Rabbits are sedated using 50-70 mg/kg ketamine and 10 mg/kg xylozine administered intramuscularly. The ears are shaved with an electric hair clipper and cleaned with water, followed by Betadine®. To minimize the risk of infection, the rabbits are given 20,000 units/kg benzathine penicillin intramuscularly prior to insertion of the ear chambers. The chamber is inserted into an approximately 0.75 cm area which is not crossed by any major vessels. During the course of the experiments, observations or any minor handling of ear chambers of the animals is done by sedating the animal using the intramuscular administration of a combination of Butorphanol® and acepromazine at levels of 1 mg/kg each. FGF-2 or FGF-2LI bound to heparin-Sepharose® beads in a controlled-release alginate capsule is contained in one of the ear chambers and the other is used as a control containing only the heparin-Sepharose® alginate capsule vehicle. Thus, the effect of the growth factors and the controlled-release capsule alone can be observed simultaneously in the same animal. […] The animals are kept for 4 to 6 weeks and neovascularization is observed visually and recorded photographically at weekly intervals.
The criteria for evaluation of the degree of neovascularization using this procedure is set out below.

FGF-2LI: human FGF-2 with loop residues 118-122 replaced by Ala-Gln-Phe-Pro-Asn from human interleukin-1β (SEQ ID NO 15)
Angiogenesis at 400 ng/chamber (400 ng/chamber): greatly stimulates formation of capillaries and larger vessels | Concentration range over which stimulatory activity is observed (rabbit ear chamber): 0.1-400 ng/chamber | Potential to induce angiogenesis (neovascularization) (rabbit ear chamber, controlled-release alginate capsule): superior to FGF-2 | Vessel formation in the chamber (rabbit ear chamber, versus control chambers): stimulate large vessel formation
